Results on nine compounds are retold here after patent US20240287138A1, “CYCLIC PEPTIDES FOR INHIBITING TNF RECEPTOR 1 ACTIVITY” (Merck Sharp & Dohme LLC, priority 2023, published 2024).

For assay [1], the target named is T1, human TNFR1 extracellular domain (ECD) protein (Homo sapiens, UniProt P19438).
T1 construct: HRV 3C protease cleavage site (C); 6His (C, cleaved yes); made in house; host or cells: Sf21 insect cells (baculovirus), secreted
T1 sequence (P19438 30-211): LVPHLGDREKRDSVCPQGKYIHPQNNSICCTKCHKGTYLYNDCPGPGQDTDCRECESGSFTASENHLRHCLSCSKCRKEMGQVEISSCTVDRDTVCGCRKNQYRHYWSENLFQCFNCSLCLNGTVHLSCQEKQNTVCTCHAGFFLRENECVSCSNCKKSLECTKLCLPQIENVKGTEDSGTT
As to the kind of experiment: SPR binding affinity to captured human TNFR1 ECD. The method, boiled down:
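Biotinylated human TNFR1 or TNFR2 ECD (C-terminal Avi-tag, Sf21-expressed) captured on a regenerable streptavidin chip; peptide analytes flowed in 10 mM HEPES pH 7.4, 150 mM NaCl, 3 mM EDTA, 0.05% P20, 2% DMSO. kon and koff measured; affinity calculated from the rate constants.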

Assay [2] has as its target T2, TNFα-induced NF-κB signal transduction pathway (TNFR1 signaling) in THP-1 cells (Homo sapiens, UniProt P19438).
T2 sequence (P19438 30-455): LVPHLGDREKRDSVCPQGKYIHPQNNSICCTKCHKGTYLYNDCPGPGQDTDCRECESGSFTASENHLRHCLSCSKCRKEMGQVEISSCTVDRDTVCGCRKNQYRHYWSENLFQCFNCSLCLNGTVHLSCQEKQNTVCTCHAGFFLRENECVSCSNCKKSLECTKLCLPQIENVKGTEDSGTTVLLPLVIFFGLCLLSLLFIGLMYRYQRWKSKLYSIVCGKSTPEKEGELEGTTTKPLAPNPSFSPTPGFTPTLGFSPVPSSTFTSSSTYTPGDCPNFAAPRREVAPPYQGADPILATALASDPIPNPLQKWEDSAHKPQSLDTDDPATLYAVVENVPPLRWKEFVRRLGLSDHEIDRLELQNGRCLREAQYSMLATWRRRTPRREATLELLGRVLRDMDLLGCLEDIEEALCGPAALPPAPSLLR
As to the kind of experiment: THP-1 Lucia NF-κB reporter cell assay, inhibition of TNFα-induced NF-κB signaling. The format is cell-based. Particulars: THP-1 NF-κB Lucia reporter cells, 10 ng/mL TNFα, 16-18 h, secreted luciferase; read-out: THP-1 IC50. The method, boiled down:
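IC50 from a 4-parameter logistic fit of secreted luciferase luminescence (QUANTI-Luc), normalised to min/max controls. Reporter THP-1 cells were exposed to peptides for 1 h at 37 °C before 10 ng/mL TNFα (final) was added overnight (16–18 h).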

Structures are written as SMILES. Numbered stars: 1 amine (or outer) side, 2 acyl side, 3 side chain; on linkers, the order of the positions; unused ones are H or OH. Bridge positions count the residues as written; N and C are the ends. Square brackets hold non-standard residues; d marks the D form. Peptide text beside a SMILES is read from it. * marks the point of attachment. Trp(βS-Me,7-OMe) = COc1cccc2c([C@H](C)[C@H](N)C(=O)O)c[nH]c12; X24 = O=C(O)c1ccc([C@@H](O)[C@H](N[*:1])C(=O)[*:2])cc1; X28 = NC(=O)c1ccc([C@H](O)[C@H](N[*:1])C(=O)[*:2])cc1; Trp(7-CN) = N#Cc1cccc2c(C[C@H](N)C(=O)O)c[nH]c12; Trp(7-Cl) = N[C@@H](Cc1c[nH]c2c(Cl)cccc12)C(=O)O; X29 = NC(=O)Cc1cccc(C[C@H](N[*:1])C(=O)[*:2])c1; Phe(4-CONH2) = NC(=O)c1ccc(C[C@H](N)C(=O)O)cc1; Phe(4-COOH) = N[C@@H](Cc1ccc(C(=O)O)cc1)C(=O)O; Trp(7-aza) = N[C@@H](Cc1c[nH]c2ncccc12)C(=O)O; dPro(4S-NH2) = N[C@@H]1CN[C@@H](C(=O)O)C1; Pip(5R-OH) = O=C(O)[C@@H]1CC[C@@H](O)CN1; X1 = O=C([C@@H]1CC[C@H](N[*:1])C1)[*:2]; X19 = O=C([C@H](Cc1ccncn1)N[*:1])[*:2]; Gly(N(CH2)3COOH) = O=C(O)CCCNCC(=O)O; Pip(4-aza) = O=C(O)[C@@H]1CNCCN1; 4Pal = N[C@@H](Cc1ccncc1)C(=O)O; NMeE = CN[C@@H](CCC(=O)O)C(=O)O; dHyp = O=C(O)[C@H]1C[C@H](O)CN1; X7 = CC[C@@H](C(=O)[*:1])[*:2]; Pip = O=C(O)[C@@H]1CCCCN1; αMeS = C[C@](N)(CO)C(=O)O; Nle = CCCC[C@H](N)C(=O)O; Ethyl(2-NH2) = NCC*; Sar = CNCC(=O)O; X22 = C1CC1C*

The compound `COc1cccc2c([C@H](C)[C@@H]3NC(=O)CN(C)C(=O)[C@H](Cc4ccc(C(=O)O)cc4)NC(=O)[C@H](Cc4ccc(C(N)=O)cc4)NC(=O)[C@](C)(CO)NC(=O)[C@H](Cc4c[nH]c5c(Cl)cccc45)NC(=O)[C@H](Cc4ccc(C(=O)O)cc4)NC(=O)[C@H](CC(N)=O)NC(=O)[C@H]4C[C@H](O)CN4C(=O)[C@H](Cc4c[nH]c5ncccc45)NC(=O)[C@@H]4CC[C@@H](O)CN4C(=O)[C@H](Cc4ccncc4)NC(=O)[C@H](COCCN)NC(=O)[C@@H]4CC[C@@H](C4)NC3=O)c[nH]c12` [SEQ ID NO. 148] (cyclo([4Pal][Pip(5R-OH)][Trp(7-aza)][dHyp]N[Phe(4-COOH)][Trp(7-Cl)][αMeS][Phe(4-CONH2)][Phe(4-COOH)][Sar][Trp(βS-Me,7-OMe)][X1]S(Ethyl(2-NH2)))) showed a Kd in assay [1] of 1.1 nM. Besides, the IC50 in assay [2] worked out at 2.8 nM.

In turn, `COc1cccc2c([C@H](C)[C@@H]3NC(=O)CN(C)C(=O)[C@H](Cc4ccc(C(=O)O)cc4)NC(=O)[C@H](Cc4ccc(C(N)=O)cc4)NC(=O)[C@](C)(CO)NC(=O)[C@H](Cc4c[nH]c5c(C#N)cccc45)NC(=O)[C@H](Cc4ccc(C(=O)O)cc4)NC(=O)[C@H](CC(N)=O)NC(=O)[C@H]4C[C@H](O)CN4C(=O)[C@H](Cc4c[nH]c5ncccc45)NC(=O)[C@@H]4CC[C@@H](O)CN4C(=O)[C@H](Cc4ccncc4)NC(=O)[C@H](COCC4CC4)NC(=O)[C@@H]4CC[C@@H](C4)NC3=O)c[nH]c12` [SEQ ID NO. 149] (cyclo([4Pal][Pip(5R-OH)][Trp(7-aza)][dHyp]N[Phe(4-COOH)][Trp(7-CN)][αMeS][Phe(4-CONH2)][Phe(4-COOH)][Sar][Trp(βS-Me,7-OMe)][X1]S(X22))) returned an equilibrium dissociation constant (Kd) in assay [1] of 0.18 nM. The half-inhibitory concentration (IC50) in assay [2] came out at 1.3 nM.

For `CCCC[C@@H]1NC(=O)[C@@H]2CC[C@@H](C2)NC(=O)[C@H]([C@@H](C)c2c[nH]c3c(OC)cccc23)NC(=O)CN(C)C(=O)[C@H](Cc2cccc(CC(N)=O)c2)NC(=O)[C@H](Cc2ccc(C(=O)O)cc2)NC(=O)[C@](C)(CO)NC(=O)[C@H](Cc2c[nH]c3c(Cl)cccc23)NC(=O)[C@H](Cc2ccncc2)NC(=O)[C@H](CC(N)=O)NC(=O)[C@H](CCC(=O)O)N(C)C(=O)[C@H](Cc2c[nH]c3ccccc23)NC(=O)[C@@H]2CNCCN2C(=O)[C@H](Cc2ccncc2)NC1=O` [SEQ ID NO. 153] (cyclo([4Pal][Trp(7-Cl)][αMeS][Phe(4-COOH)][X29][Sar][Trp(βS-Me,7-OMe)][X1][Nle][4Pal][Pip(4-aza)]W[NMeE]N)), binding in assay [1] was put at a Kd of 0.16 nM. In addition, the IC50 in assay [2] was determined as 2.6 nM.

With `CCCC[C@@H]1NC(=O)[C@@H]2CC[C@@H](C2)NC(=O)[C@H]([C@@H](C)c2c[nH]c3c(OC)cccc23)NC(=O)CN(C)C(=O)[C@H]([C@H](O)c2ccc(C(=O)O)cc2)NC(=O)[C@H]([C@@H](O)c2ccc(C(N)=O)cc2)NC(=O)[C@](C)(CO)NC(=O)[C@H](Cc2c[nH]c3c(C#N)cccc23)NC(=O)[C@H](Cc2ccncc2)NC(=O)[C@H](CC(N)=O)NC(=O)[C@H]2C[C@H](O)CN2C(=O)[C@H](Cc2c[nH]c3ccccc23)NC(=O)[C@@H]2CC[C@@H](O)CN2C(=O)[C@H](Cc2ccncc2)NC1=O` [SEQ ID NO. 155] (cyclo([4Pal][Trp(7-CN)][αMeS][X28][X24][Sar][Trp(βS-Me,7-OMe)][X1][Nle][4Pal][Pip(5R-OH)]W[dHyp]N)), the Kd in assay [1] is 0.02 nM. Also, the IC50 in assay [2] was 0.9 nM.

On to `CCCC[C@@H]1NC(=O)CSC[C@@H](C(N)=O)NC(=O)[C@H]([C@@H](C)c2c[nH]c3c(OC)cccc23)NC(=O)CN(C)C(=O)[C@H](Cc2ccc(O)cc2)NC(=O)[C@H](Cc2ccc(C(=O)O)cc2)NC(=O)[C@](C)(CO)NC(=O)[C@H](Cc2c[nH]c3c(Cl)cccc23)NC(=O)[C@H](Cc2ccncc2)NC(=O)[C@H](CC(N)=O)NC(=O)CN(CCCC(=O)O)C(=O)[C@H](Cc2c[nH]c3ncccc23)NC(=O)[C@@H]2CCCCN2C(=O)[C@H](Cc2ccncc2)NC1=O` [SEQ ID NO. 157] ({CH2CO}-[Nle][4Pal][Pip][Trp(7-aza)][Gly(N(CH2)3COOH)]N[4Pal][Trp(7-Cl)][αMeS][Phe(4-COOH)]Y[Sar][Trp(βS-Me,7-OMe)]C-NH2; thioether N-14), for which, in assay [1], the affinity, expressed as Kd, was 0.5 nM. Further, in assay [2], the IC50 turned out to be 4 nM.

As to `CCCC[C@@H]1NC(=O)[C@@H]2CC[C@@H](C2)NC(=O)[C@H]([C@@H](C)c2c[nH]c3c(OC)cccc23)NC(=O)CN(C)C(=O)[C@H](Cc2ccc(C(=O)O)cc2)NC(=O)[C@H](Cc2ccc(C(N)=O)cc2)NC(=O)[C@](C)(CO)NC(=O)[C@H](Cc2c[nH]c3c(Cl)cccc23)NC(=O)[C@H](Cc2ccncn2)NC(=O)[C@H](CC(N)=O)NC(=O)[C@H]2C[C@H](O)CN2C(=O)[C@H](Cc2c[nH]c3ncccc23)NC(=O)[C@@H]2CC[C@@H](O)CN2C(=O)[C@H](Cc2ccncc2)NC1=O` [SEQ ID NO. 159] (cyclo([4Pal][Pip(5R-OH)][Trp(7-aza)][dHyp]N[X19][Trp(7-Cl)][αMeS][Phe(4-CONH2)][Phe(4-COOH)][Sar][Trp(βS-Me,7-OMe)][X1][Nle])), in assay [1], the Kd stood at 0.05 nM. In addition, the IC50 in assay [2] turned out to be 0.8 nM.

On to `CCCC[C@@H]1NC(=O)[C@@H]2CC[C@@H](C2)NC(=O)[C@H]([C@@H](C)c2c[nH]c3c(OC)cccc23)NC(=O)CN(C)C(=O)[C@H](Cc2ccc(O)cc2)NC(=O)[C@H](Cc2ccc(C(=O)O)cc2)NC(=O)[C@](C)(CO)NC(=O)[C@H](Cc2c[nH]c3c(Cl)cccc23)NC(=O)[C@H](Cc2ccncc2)NC(=O)[C@H](CC(N)=O)NC(=O)[C@H]2C[C@H](N)CN2C(=O)[C@H](Cc2c[nH]c3ccccc23)NC(=O)[C@@H]2CNCCN2C(=O)[C@H](Cc2ccncc2)NC1=O` [SEQ ID NO. 161] (cyclo([4Pal][Trp(7-Cl)][αMeS][Phe(4-COOH)]Y[Sar][Trp(βS-Me,7-OMe)][X1][Nle][4Pal][Pip(4-aza)]W[dPro(4S-NH2)]N)), for which binding in assay [1] was put at a Kd of 0.02 nM. For the same compound, the IC50 in assay [2] is 1.3 nM.

In turn, `CCCC[C@@H]1NC(=O)[C@@H]2CC[C@@H](C2)NC(=O)[C@H]([C@@H](C)c2c[nH]c3c(OC)cccc23)NC(=O)CN(C)C(=O)[C@H](Cc2ccc(O)cc2)NC(=O)[C@H](Cc2ccc(C(N)=O)cc2)NC(=O)[C@](C)(CO)NC(=O)[C@H](Cc2c[nH]c3c(Cl)cccc23)NC(=O)[C@H](Cc2ccncc2)NC(=O)[C@H](CC(N)=O)NC(=O)[C@H](CCC(=O)O)N(C)C(=O)[C@H](Cc2c[nH]c3ccccc23)NC(=O)[C@@H]2CC[C@@H](O)CN2C(=O)[C@H](Cc2ccncc2)NC1=O` [SEQ ID NO. 163] (cyclo([4Pal][Trp(7-Cl)][αMeS][Phe(4-CONH2)]Y[Sar][Trp(βS-Me,7-OMe)][X1][Nle][4Pal][Pip(5R-OH)]W[NMeE]N)) yielded a Kd in assay [1] of 0.05 nM. For the same compound, the IC50 in assay [2] came to 0.7 nM.

Consider `CCCC[C@@H]1NC(=O)[C@H](CC)SC[C@@H](C(N)=O)NC(=O)[C@H]([C@@H](C)c2c[nH]c3c(OC)cccc23)NC(=O)CN(C)C(=O)[C@H](Cc2ccc(O)cc2)NC(=O)[C@H](Cc2ccc(C(N)=O)cc2)NC(=O)[C@](C)(CO)NC(=O)[C@H](Cc2c[nH]c3c(Cl)cccc23)NC(=O)[C@H](Cc2ccc(C(=O)O)cc2)NC(=O)[C@H](CC(N)=O)NC(=O)[C@H](CCC(=O)O)N(C)C(=O)[C@H](Cc2c[nH]c3ncccc23)NC(=O)[C@@H]2CC[C@@H](O)CN2C(=O)[C@H](Cc2ccncc2)NC1=O` [SEQ ID NO. 168] ([Nle][4Pal][Pip(5R-OH)][Trp(7-aza)][NMeE]N[Phe(4-COOH)][Trp(7-Cl)][αMeS][Phe(4-CONH2)]Y[Sar][Trp(βS-Me,7-OMe)]C-NH2; linker N-14 via X7), for which binding in assay [1] was put at a Kd of 0.37 nM. In addition, in assay [2], the IC50 is 1.2 nM.
